The assay deals with SUDHL6 xenograft tumor tissue. The experiment in a line: Immunofluorescence on frozen tumor sections from efficacy study (COX-2, MDA, 8-OHdG). In kind it is in vivo, NCG mice. As to the method: NCG mice, 6-weeks old, were injected with 10 million SUDHLO-6 cells subcutaneously. The mice were treated after the tumor size reached 100 mm^3. Mice were separated randomly into treatment groups and dosed with 23 mg/kg IKE, 40 mg/kg IKE, 23 mg/kg IKE PEG-PLGA nanoparticles (equal to 700 mg/kg PEG-PLGA), vehicle 1 (based on volume), and vehicle 2 (700 mg/kg PEG-PLGA) once daily by IP for 14 days. Tumor volume was measured daily with electronic caliper and calculated using the formula: 0.5×length×width^2. 3 h after the final dosage, mice were euthanized with CO2 and tumor tissue was dissected, weighed, divided into 4-6 segments, frozen, and stored at −80° C. Tumor volume change was analyzed in Prism using one-way ANOVA. Tumor tissues were analyzed as described in the RT-qPCR, immunofluorescence, TBARS, and lipidomics sections below.
Tumor tissues were fixed in 4% paraformaldehyde (PFA) for 24 h at 4° C. followed by washing with PBS three times. The tissues were perfused in 30% sucrose for 24 h at 4° C. for cryo-protection. The samples were embedded in OCT cryostat sectioning medium, and then moved directly into a cryostat. After equilibration of temperature, frozen tumor tissues were cut into 5 μm thick sections. Tissue sections were mounted on to poly-L-lysine coated slides by placing the cold sections onto warm slides. Slides were stored at −80° C. until staining. For staining, slides were warmed to room temperature followed by washing with PBS twice. A hydrophobic barrier pen was used to draw a circle on each slide. The slides were permeabilized with PBS/0.4% Triton X-100 twice before non-specific-binding blocking by incubating the sections with 10% goat serum (ThermoFisher 50197Z) for 30 minutes at room temperature. The sections were separately incubated with mouse anti-MDA mAb 1F83 (1:1000 dilution), anti-cyclooxygenase 2 (COX 2, AKA PTGS2) antibody (Abcam, ab15191, 1:200 dilution), or anti-8-OH-dG (DNA/RNA damage) antibody (Abcam, ab62623, 1:200 dilution) overnight at 4° C. in humidified chambers. Sections were washed with PBST for twice before incubating with goat anti-mouse IgG H&L (Alexa Fluor 647) (Abcam, ab150115, 1:1000 dilution) or goat anti-rabbit IgG H&L highly cross-absorbed secondary antibody (Alexa Fluor488, Thermo Fisher Scientific, A-11034, 1:1000) at room temperature for 1 h. Slides were then washed twice with PBST. ProLong Diamond antifade mountant with DAPI (ThermoFisher P36962) was added onto slides, which were then covered with the coverslips, sealed by clear fingernail polish and observed under confocal microscopy. All images were captured on a Zeiss LSM 800 confocal microscope at Plan-Apochromat 63×/1.40 Oil DIC objective with constant laser intensity for all analyzed samples. The intensity above threshold of the fluorescent signal of the bound antibodies was analyzed using NIH ImageJ software. Data were expressed as fold change comparing with the vehicle.

For `CC(C)Oc1ccc(C(=O)Cn2ccnc2)cc1-n1c(CN2CCN(C(=O)COc3ccc(Cl)cc3)CC2)nc2ccccc2c1=O` [IKE, Imidazole ketone erastin], where the note is “23 mg/kg daily for 14 days”, the “increase in 8-OHdG intensity (immunofluorescence)” value is recorded as 1.8 fold, the “increase in COX-2 intensity (immunofluorescence)” value was found to be 2.0 fold and the “increase in MDA intensity (immunofluorescence)” value stood at 1.8 fold. In addition, where the note is “40 mg/kg daily for 14 days”, the “increase in 8-OHdG intensity (immunofluorescence)” value is on record as 2.2 fold, the “increase in COX-2 intensity (immunofluorescence)” value is recorded as 2.8 fold and the “increase in MDA intensity (immunofluorescence)” value is 2.0 fold.

Source of the values: patent US20210267978A1, “NANOPARTICLE FORMULATIONS OF IKE AND METHODS OF USE THEREOF” (The Trustees of Columbia University in the City of New York, priority 2018, published 2021).
